The source made the active and inactive calls.
Columns and labels:
Aminopeptidase N = biological target: T1, Aminopeptidase N (Plasmodium falciparum FcB1/Columbia, UniProt O96935); assay: P. falciparum M1AAP inhibitors, biochemical, fluorogenic H-Leu-NHMec substrate, 1536-well (AID 1445); design: species or system Plasmodium falciparum 3D7, 3D7
T1 sequence (O96935 whole entry): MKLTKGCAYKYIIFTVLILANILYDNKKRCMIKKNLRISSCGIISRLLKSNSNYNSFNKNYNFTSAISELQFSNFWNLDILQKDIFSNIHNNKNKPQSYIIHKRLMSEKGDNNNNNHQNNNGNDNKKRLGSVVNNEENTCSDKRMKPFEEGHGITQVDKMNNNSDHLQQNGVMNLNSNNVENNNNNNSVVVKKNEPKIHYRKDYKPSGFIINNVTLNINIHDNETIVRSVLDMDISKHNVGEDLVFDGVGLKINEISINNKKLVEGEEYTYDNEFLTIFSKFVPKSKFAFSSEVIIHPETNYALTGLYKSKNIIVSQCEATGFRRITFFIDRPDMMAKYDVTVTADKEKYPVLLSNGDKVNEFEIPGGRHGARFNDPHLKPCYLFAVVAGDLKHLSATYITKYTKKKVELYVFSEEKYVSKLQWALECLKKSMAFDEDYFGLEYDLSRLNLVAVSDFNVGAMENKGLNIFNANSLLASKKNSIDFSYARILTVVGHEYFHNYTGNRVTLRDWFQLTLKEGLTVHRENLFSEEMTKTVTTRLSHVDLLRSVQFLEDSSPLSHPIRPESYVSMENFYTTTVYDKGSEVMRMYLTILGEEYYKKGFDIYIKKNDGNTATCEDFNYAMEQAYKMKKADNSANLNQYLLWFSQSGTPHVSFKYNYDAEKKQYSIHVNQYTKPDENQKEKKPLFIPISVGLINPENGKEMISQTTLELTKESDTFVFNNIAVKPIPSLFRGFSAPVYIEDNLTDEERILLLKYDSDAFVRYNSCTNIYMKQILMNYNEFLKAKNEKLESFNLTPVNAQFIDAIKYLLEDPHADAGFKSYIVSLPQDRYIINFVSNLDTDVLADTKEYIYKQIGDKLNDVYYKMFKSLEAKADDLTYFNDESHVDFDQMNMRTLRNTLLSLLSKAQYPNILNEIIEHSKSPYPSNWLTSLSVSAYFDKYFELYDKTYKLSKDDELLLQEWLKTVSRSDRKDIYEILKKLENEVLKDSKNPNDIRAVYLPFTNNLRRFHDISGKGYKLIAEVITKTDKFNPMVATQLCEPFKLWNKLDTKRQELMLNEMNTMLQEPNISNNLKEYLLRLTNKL

Leucine aminopeptidase = biological target: T2, Leucine aminopeptidase (Plasmodium falciparum 3D7, UniProt Q8IL11); assay: P. falciparum M17LAP inhibitors, primary screen, biochemical, fluorogenic H-Leu-NHMec substrate, 1536-well (AID 1619); type: functional
T2 sequence (Q8IL11 whole entry): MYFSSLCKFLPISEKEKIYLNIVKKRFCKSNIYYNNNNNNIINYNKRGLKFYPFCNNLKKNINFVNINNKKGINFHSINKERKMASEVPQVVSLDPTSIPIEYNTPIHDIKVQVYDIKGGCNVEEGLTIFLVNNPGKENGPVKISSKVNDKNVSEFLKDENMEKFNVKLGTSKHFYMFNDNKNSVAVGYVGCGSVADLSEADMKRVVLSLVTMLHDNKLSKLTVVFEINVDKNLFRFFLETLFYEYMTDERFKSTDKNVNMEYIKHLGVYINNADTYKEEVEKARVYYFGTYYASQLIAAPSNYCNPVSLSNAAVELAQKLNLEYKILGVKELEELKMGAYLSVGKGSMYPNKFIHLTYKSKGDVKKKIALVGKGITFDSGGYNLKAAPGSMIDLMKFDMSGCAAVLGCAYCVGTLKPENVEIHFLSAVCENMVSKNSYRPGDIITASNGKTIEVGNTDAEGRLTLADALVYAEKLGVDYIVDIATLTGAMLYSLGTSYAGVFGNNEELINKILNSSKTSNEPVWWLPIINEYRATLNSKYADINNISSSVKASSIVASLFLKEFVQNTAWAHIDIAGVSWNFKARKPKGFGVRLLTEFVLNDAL

[1] = biological target: T3, Histone-lysine N-methyltransferase NSD2 (Homo sapiens, UniProt O96028); type: biochemical
T3 sequence (O96028 whole entry): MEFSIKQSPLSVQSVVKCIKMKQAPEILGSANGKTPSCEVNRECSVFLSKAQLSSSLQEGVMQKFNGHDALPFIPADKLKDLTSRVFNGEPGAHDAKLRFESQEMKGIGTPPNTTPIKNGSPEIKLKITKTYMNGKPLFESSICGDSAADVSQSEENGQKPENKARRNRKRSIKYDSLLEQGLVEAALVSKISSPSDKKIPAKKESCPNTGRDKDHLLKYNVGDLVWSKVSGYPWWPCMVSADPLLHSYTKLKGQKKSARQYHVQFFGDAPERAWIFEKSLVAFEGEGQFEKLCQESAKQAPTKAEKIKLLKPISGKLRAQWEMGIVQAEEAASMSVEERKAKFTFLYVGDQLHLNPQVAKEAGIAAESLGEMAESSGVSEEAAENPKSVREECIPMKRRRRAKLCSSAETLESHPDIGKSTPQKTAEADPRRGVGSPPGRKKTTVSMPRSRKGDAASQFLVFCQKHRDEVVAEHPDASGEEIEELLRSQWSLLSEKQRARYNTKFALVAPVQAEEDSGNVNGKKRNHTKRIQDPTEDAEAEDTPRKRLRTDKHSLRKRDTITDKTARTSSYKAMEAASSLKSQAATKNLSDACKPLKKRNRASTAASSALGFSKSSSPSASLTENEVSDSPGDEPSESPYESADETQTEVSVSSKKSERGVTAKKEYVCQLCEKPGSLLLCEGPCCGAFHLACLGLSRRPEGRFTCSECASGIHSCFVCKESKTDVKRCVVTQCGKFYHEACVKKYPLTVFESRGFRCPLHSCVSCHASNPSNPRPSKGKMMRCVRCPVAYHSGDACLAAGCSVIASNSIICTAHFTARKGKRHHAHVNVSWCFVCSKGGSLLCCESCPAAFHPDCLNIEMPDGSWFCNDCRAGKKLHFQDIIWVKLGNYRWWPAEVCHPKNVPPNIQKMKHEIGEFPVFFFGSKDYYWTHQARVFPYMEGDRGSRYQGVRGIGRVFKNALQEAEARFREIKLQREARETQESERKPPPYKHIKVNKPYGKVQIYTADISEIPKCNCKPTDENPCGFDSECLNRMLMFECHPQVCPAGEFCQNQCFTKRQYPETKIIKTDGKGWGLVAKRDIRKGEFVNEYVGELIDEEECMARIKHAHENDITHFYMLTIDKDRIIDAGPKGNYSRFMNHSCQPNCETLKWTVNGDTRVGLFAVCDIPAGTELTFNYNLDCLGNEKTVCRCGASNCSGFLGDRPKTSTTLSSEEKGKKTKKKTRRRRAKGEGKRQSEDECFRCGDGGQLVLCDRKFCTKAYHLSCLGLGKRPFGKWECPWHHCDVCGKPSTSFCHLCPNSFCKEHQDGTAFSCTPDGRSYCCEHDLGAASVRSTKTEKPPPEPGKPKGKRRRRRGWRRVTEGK

[2] = biological target: T4, Dual specificity protein phosphatase 6 (Rattus norvegicus, UniProt Q64346); assay: MKP-3 phosphatase inhibitors, primary screen, biochemical, rat enzyme, in vitro (AID 425)
T4 sequence (Q64346 whole entry): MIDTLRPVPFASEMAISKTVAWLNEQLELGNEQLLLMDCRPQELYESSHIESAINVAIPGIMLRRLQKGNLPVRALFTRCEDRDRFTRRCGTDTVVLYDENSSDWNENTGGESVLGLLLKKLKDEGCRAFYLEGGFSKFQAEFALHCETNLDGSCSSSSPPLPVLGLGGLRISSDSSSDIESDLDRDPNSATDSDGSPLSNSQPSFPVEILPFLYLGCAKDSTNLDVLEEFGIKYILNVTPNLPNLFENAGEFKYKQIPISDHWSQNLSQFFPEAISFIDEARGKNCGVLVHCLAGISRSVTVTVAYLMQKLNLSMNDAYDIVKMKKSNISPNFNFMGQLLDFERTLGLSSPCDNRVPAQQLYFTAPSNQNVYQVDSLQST

Prothrombin = Prothrombin (Homo sapiens, UniProt P00734); assay: Thrombin 1536 HTS Dose Response Confirmation. [Related pubchem assays: 1046 (Thrombin 1536 HTS; hits were confirmed in this assay)]; type: functional
[3] = P. falciparum Dd2 growth inhibitors, dose response, SYBR Green, cherry-picked samples (AID 1159567); type: functional, cell-based
[4] = cytotoxicity in OVCAR8 ovarian cancer cells, dose response, PAX8 project, cell-based, plate reader, dry powder samples (AID 743197); type: functional; conditions: OVCAR-8
[5] = NIH:OVCAR-3 ovarian cancer cell cytotoxicity, dose response, PAX8 inhibitor project, plate reader, dry powder samples (AID 743044); type: functional, cell-based
[6] = P. falciparum 3D7-ScDHODH growth inhibitors, dose response, SYBR Green, dry powder samples (AID 1159570); type: functional, cell-based;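 note: parasite growth measured after 72 hours of compound exposure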
[7] = P. falciparum Dd2 growth inhibitors, dose response, SYBR Green, dry powder samples (AID 1159566); type: functional, cell-based;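 note: potency for growth inhibition with lower SYBR green DNA signal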
[8] = P. falciparum ATP4 D1247Y mutant growth inhibitors, dose response, NITD609-resistant line, SYBR Green, dry powder (AID 1159571); type: functional, cell-based;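 note: parasites synchronized at ring stage by sorbitol before testing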
Paired box protein Pax-8 = Paired box protein Pax-8 (Homo sapiens, UniProt Q06710); assay: inhibitors of PAX8-driven TPO luciferase reporter, dose response, RMG-I cells, cherry-pick (AID 687027); type: functional, cell-based;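 note: luciferase reporter driven by Pax8 target thyroperoxidase promoter measured by SteadyGlo luminescence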
Chain of Paired box protein Pax-8 (Q06710 whole entry): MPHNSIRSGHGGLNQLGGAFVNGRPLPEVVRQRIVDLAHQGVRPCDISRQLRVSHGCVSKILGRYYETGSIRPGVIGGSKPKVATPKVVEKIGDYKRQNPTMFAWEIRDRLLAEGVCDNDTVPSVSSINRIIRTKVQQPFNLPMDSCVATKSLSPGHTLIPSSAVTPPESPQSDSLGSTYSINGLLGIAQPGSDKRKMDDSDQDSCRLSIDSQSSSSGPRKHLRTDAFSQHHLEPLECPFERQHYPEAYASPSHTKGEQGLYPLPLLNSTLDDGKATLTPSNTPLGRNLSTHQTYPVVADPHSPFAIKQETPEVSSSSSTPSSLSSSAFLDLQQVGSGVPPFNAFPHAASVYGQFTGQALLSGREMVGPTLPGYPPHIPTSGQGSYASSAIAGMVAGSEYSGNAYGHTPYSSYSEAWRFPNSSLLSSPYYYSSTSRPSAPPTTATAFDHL

Coagulation factor XII = biological target: T5, Coagulation factor XII (Homo sapiens, UniProt P00748); type: functional;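 note: activated factor XIIa alpha cleaving a fluorogenic AMC peptide substrate; inhibitor potency from loss of enzyme activity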
T5 sequence (P00748 whole entry): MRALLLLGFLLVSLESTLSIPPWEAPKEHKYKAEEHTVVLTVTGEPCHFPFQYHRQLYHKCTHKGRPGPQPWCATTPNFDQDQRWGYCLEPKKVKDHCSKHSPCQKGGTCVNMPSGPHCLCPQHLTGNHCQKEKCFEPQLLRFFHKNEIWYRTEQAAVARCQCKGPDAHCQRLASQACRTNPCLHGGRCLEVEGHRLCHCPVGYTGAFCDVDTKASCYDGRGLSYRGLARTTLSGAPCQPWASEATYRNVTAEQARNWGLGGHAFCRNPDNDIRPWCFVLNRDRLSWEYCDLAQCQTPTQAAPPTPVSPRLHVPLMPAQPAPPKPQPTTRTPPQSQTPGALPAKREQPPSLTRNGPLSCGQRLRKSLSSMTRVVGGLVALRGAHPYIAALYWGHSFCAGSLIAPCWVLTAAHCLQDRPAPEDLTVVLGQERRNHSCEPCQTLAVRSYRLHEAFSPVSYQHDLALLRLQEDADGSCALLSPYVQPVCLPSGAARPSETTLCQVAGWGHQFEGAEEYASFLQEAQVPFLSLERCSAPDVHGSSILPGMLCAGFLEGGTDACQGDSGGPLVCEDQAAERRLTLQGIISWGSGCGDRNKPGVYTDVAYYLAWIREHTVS

[9] = test system: Streptococcus sp. 'group A'; assay: growth inhibition of control SK(-) GAS strain, dose response, counter-screen for streptokinase expression inhibitor project, luminescence, kanamycin, BacTiterGlo, confirmation (AID 1900); type: functional, organism-based
INS1 = assay: beta cell apoptosis inhibitors, cytokine rescue, dose response, luminescence, retest (AID 449756); type: functional, cell-based; conditions: Rattus norvegicus;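 note: cell death triggered by IL-1 beta plus TNF-alpha plus IFN-gamma mixture; protective hits raise ATP signal compared with cytokine alone wells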
Streptococcus = assay: Group A Streptococcus viability loss, dose response, counter-screen for streptokinase expression inhibitor project, luminescence, BacTiterGlo (AID 1915); type: functional, organism-based;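 note: potency for reduction of bacterial viability or growth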

In the case of Cc1ccc(C)c(N2C(=N)S/C(=C\c3ccc(-c4ccccc4C(=O)O)o3)C2=O)c1, the IC50 (Aminopeptidase N) was 10.4 µM (active), the IC50 (Leucine aminopeptidase) was 32.6 µM (active) and the AC50 [1] was 10.4 µM (active).

For COC(=O)c1ccccc1NC(=O)Nc1cc(C)cc(C)n1, the IC50 [2] was > 100 µM (not active).

For Cn1c(SCC(=O)NC2CCCC2)nnc1-c1ccc(S(=O)(=O)N2CCOCC2)cc1, the IC50 (Prothrombin) was > 50 µM (not active).

In the case of O=C(c1ccc(-c2ccccc2)cc1)N1CCN(Cc2ccccn2)CC1, the IC50 [2] was > 100 µM (not active).

For N#Cc1sc2nc(-c3ccccc3)cc(C(F)(F)F)c2c1N, the IC50 (Prothrombin) was > 50 µM (not active).

In the case of Cc1ccc(S(=O)(=O)N(C)C[C@H]2Oc3cc(C#Cc4ccncc4)ccc3S(=O)(=O)N([C@@H](C)CO)C[C@@H]2C)cc1, the AC50 [3] was 1.68 µM (active), the AC50 [4] was > 70 µM (inactive) and the AC50 [5] was 49.1 µM (active). The AC50 [6] was 1.37 µM (active), the AC50 [7] was 1.41 µM (active) and the AC50 [8] was 1.64 µM (active). The AC50 (Paired box protein Pax-8) was 2.52 µM (active).

For Cc1noc(C)c1S(=O)(=O)Nc1ccc2c(c1)C(=O)N([C@@H](C)CO)C[C@H](C)[C@@H](CN(C)C(=O)Nc1ccc(C(F)(F)F)cc1)OCCCC[C@H](C)O2, the AC50 [4] was > 70 µM (inactive), the AC50 [5] was 30.9 µM (active) and the AC50 (Paired box protein Pax-8) was 4.92 µM (active).

With O=C(N/N=C/c1ccc(OCc2cnc(Cl)s2)cc1)c1ccncc1 the IC50 (Prothrombin) was > 50 µM (not active) and the IC50 (Coagulation factor XII) was > 50 µM (inactive).

With O=C(N/N=C/c1cccc(F)c1)c1c(O)nc2ccccc2c1O the IC50 (Prothrombin) was > 50 µM (not active), the EC50 [9] was 2.87 µM (active) and the AC50 (INS1) was 3.63 µM (active). The EC50 (Streptococcus) was 3.03 µM (active).

With COc1ccc(NC(=O)N2CCCCN3[C@@H](CO)[C@H](c4ccc(C#Cc5ccccn5)cc4)[C@@H]3C2)cc1 the AC50 [3] was < 0.3 µM (active), the AC50 [6] was 0.116 µM (active) and the AC50 [7] was 0.155 µM (active). The AC50 [8] was 0.132 µM (active).
